In PMC6375636, “Monotherapy with a low-dose lipopeptide HIV fusion inhibitor maintains long-term viral suppression in rhesus macaques” (PLoS Pathogens, 2019):
Peptide text beside a SMILES is read from it. * marks the point of attachment. Docosanoyl = CCCCCCCCCCCCCCCCCCCCCC(=O)*; Arachidoyl = CCCCCCCCCCCCCCCCCCCC(=O)*; Stearoyl = CCCCCCCCCCCCCCCCCC(=O)*; X1 = CCCCCCCCCCCCCCCCCCCCCCCC(=O)*; Lauroyl = CCCCCCCCCCCC(=O)*; Octanoyl = CCCCCCCC(=O)*

Assays:
HIV-1JRCSF = assay type: cell-based; details: Fig 1; replication-competent virus; mean ± SD of three assays in triplicate; read-out: Anti-HIV activity (IC50, pM) JRCSF infection
Protocol: (§1) The inhibitory activities of inhibitors against HIV-1 pseudoviruses and replication-competent isolates were measured as described previously. Briefly, HIV-1 pseudoviruses were generated via the cotransfection of HEK293T cells with an Env-expressing plasmid and a backbone plasmid that encodes Env-defective, luciferase-expressing HIV-1 genome (pSG3Δenv). Viral stocks of replication-competent HIV-1 isolates were generated by transfecting viral molecular clones into HEK293T cells. Culture supernatants were harvested at 48 h posttransfection, and 50% tissue culture infectious doses (TCID50) in TZM-bl cells were determined. Inhibitors were prepared in 3-fold dilutions, mixed with 100 TCID50 of a virus, and then incubated for 1 h at room temperature. The mixture was added to TZM-bl cells (10^4/well), and the cells were incubated for additional 48 h at 37°C. Luciferase activity was measured as described above.

[1] = tested on: HIV-1NL4-3(D36G) pseudovirus; assay type: cell-based; details: Fig 1; NL4-3(D36G) pseudovirus; mean ± SD of three assays in triplicate; read-out: Anti-HIV activity (IC50, pM) NL4-3 entry
Protocol: as §1, with “Culture supernatants were harvested at 48 h posttransfection, and 50% tissue culture infectious doses (TCID50) in TZM-bl cells were determined.” left out, “The mixture was added to TZM-bl cells (10^4/well), and the cells were incubated for additional 48 h at 37°C.” left out

HIV-1HXB2 Env = target: T1, HIV-1HXB2 Env (Human immunodeficiency virus type 1 group M subtype B, UniProt P04578); test: HIV-1HXB2 Env-mediated cell-cell fusion (HL2/3 effector, TZM-bl target, luciferase reporter); assay type: cell-based
T1 construct: HL2/3 cells, which stably express high levels of Env, Gag, Tat, Rev, and Nef proteins of the integrated HIV-1 molecular clone HXB2/3gpt; host or cells: HL2/3 cells (effector), cocultured with TZM-bl target cells
T1 sequence (P04578 512-856): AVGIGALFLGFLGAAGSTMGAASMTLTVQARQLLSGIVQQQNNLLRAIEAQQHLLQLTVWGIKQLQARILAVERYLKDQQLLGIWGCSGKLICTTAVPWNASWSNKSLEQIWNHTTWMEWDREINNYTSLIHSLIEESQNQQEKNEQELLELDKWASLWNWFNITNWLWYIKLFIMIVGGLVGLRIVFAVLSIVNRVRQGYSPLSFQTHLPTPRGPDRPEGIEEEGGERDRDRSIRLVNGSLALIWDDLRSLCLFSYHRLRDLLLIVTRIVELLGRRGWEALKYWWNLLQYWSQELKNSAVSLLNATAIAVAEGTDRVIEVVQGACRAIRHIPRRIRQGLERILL
Protocol: The inhibitory activities of inhibitors on HIV-1HXB2 Env-mediated cell-cell fusion were determined by a reporter gene assay based on the activation of an HIV LTR-driven luciferase cassette in TZM-bl cells (target) by HIV-1 tat from HL2/3 cells (effector). Briefly, 1 x 10^4/well of TZM-bl cells were plated in 96-well plates and incubated at 37°C overnight. Then, 3 x 10^4/well of HL2/3 cells were cocultured with target cells for 6 h at 37°C in the presence or absence of an inhibitor at graded concentrations. Luciferase activity was measured using luciferase assay reagents and a Luminescence Counter (Promega, Madison, Wisconsin, USA).

[2] = lipopeptide alone, 10 μM in PBS, representative of 2 assays; for Helix content (%): [θ]222 / -33,000
[3] = target: T2, gp41 NHR-derived target mimic peptide N39 (Human immunodeficiency virus type 1 group M subtype B, UniProt P04578); test: CD spectroscopy of lipopeptides in complex with target mimic peptide N39; assay type: binding, HIV-1; set-up: [θ]222: unit not given here; details: complex with N39, each peptide 10 μM in PBS; representative of 2 assays
T2 construct: the gp41 NHR-derived target mimic peptide N39
T2 sequence (P04578 528-566): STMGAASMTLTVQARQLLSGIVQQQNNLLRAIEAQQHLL
Text: Spectra were corrected by subtracting a solvent blank.

`CCCCCCCCCCCCCCCCCCCCCCCC(=O)NCCCC[C@H](NC(=O)[C@H](CCC(=O)O)NC(=O)[C@H](CC(C)C)NC(=O)[C@H](CCCCN)NC(=O)[C@H](CCCCN)NC(=O)[C@H](CC(C)C)NC(=O)[C@H](CCC(=O)O)NC(=O)[C@H](CCC(=O)O)NC(=O)[C@H](CCC(=O)O)NC(=O)[C@H](CC(N)=O)NC(=O)[C@H](CCCCN)NC(=O)[C@H](CCCCN)NC(=O)[C@H](CCC(N)=O)NC(=O)[C@H](CCC(N)=O)NC(=O)[C@H](CCC(=O)O)NC(=O)[C@H](CCC(=O)O)NC(=O)[C@H](C)NC(=O)[C@H](CCCCN)NC(=O)[C@H](CCCCN)NC(=O)[C@H](CC(C)C)NC(=O)[C@H](CC(C)C)NC(=O)[C@H](CCC(=O)O)NC(=O)[C@H](CCC(=O)O)NC(=O)[C@@H](NC(=O)[C@H](CCCCN)NC(=O)[C@H](CCC(N)=O)NC(=O)[C@H](CCC(=O)O)NC(=O)[C@H](Cc1c[nH]c2ccccc12)NC(C)=O)[C@@H](C)CC)C(N)=O` [LP-77] (Ac-WEQKIEELLKKAEEQQKKNEEELKKLEK(X1)-NH2) showed an IC50 (HIV-1JRCSF) of 12 ± 1.34 pM, an IC50 [1] of 7.98 ± 0.97 pM and an IC50 (HIV-1HXB2 Env) of 0.161 ± 0.00664 nM.

In the case of `CCCCCCCCCCCCCCCCCCCCCC(=O)NCCCC[C@H](NC(=O)[C@H](CCC(=O)O)NC(=O)[C@H](CC(C)C)NC(=O)[C@H](CCCCN)NC(=O)[C@H](CCCCN)NC(=O)[C@H](CC(C)C)NC(=O)[C@H](CCC(=O)O)NC(=O)[C@H](CCC(=O)O)NC(=O)[C@H](CCC(=O)O)NC(=O)[C@H](CC(N)=O)NC(=O)[C@H](CCCCN)NC(=O)[C@H](CCCCN)NC(=O)[C@H](CCC(N)=O)NC(=O)[C@H](CCC(N)=O)NC(=O)[C@H](CCC(=O)O)NC(=O)[C@H](CCC(=O)O)NC(=O)[C@H](C)NC(=O)[C@H](CCCCN)NC(=O)[C@H](CCCCN)NC(=O)[C@H](CC(C)C)NC(=O)[C@H](CC(C)C)NC(=O)[C@H](CCC(=O)O)NC(=O)[C@H](CCC(=O)O)NC(=O)[C@@H](NC(=O)[C@H](CCCCN)NC(=O)[C@H](CCC(N)=O)NC(=O)[C@H](CCC(=O)O)NC(=O)[C@H](Cc1c[nH]c2ccccc12)NC(C)=O)[C@@H](C)CC)C(N)=O` [LP-78] (Ac-WEQKIEELLKKAEEQQKKNEEELKKLEK(Docosanoyl)-NH2), the IC50 (HIV-1JRCSF) is reported as 7.16 ± 2.01 pM, the IC50 [1] is reported as 3.73 ± 0.45 pM and the IC50 (HIV-1HXB2 Env) is reported as 0.0544 ± 0.00709 nM.

For `CCCCCCCCCCCCCCCCCCCC(=O)NCCCC[C@H](NC(=O)[C@H](CCC(=O)O)NC(=O)[C@H](CC(C)C)NC(=O)[C@H](CCCCN)NC(=O)[C@H](CCCCN)NC(=O)[C@H](CC(C)C)NC(=O)[C@H](CCC(=O)O)NC(=O)[C@H](CCC(=O)O)NC(=O)[C@H](CCC(=O)O)NC(=O)[C@H](CC(N)=O)NC(=O)[C@H](CCCCN)NC(=O)[C@H](CCCCN)NC(=O)[C@H](CCC(N)=O)NC(=O)[C@H](CCC(N)=O)NC(=O)[C@H](CCC(=O)O)NC(=O)[C@H](CCC(=O)O)NC(=O)[C@H](C)NC(=O)[C@H](CCCCN)NC(=O)[C@H](CCCCN)NC(=O)[C@H](CC(C)C)NC(=O)[C@H](CC(C)C)NC(=O)[C@H](CCC(=O)O)NC(=O)[C@H](CCC(=O)O)NC(=O)[C@@H](NC(=O)[C@H](CCCCN)NC(=O)[C@H](CCC(N)=O)NC(=O)[C@H](CCC(=O)O)NC(=O)[C@H](Cc1c[nH]c2ccccc12)NC(C)=O)[C@@H](C)CC)C(N)=O` [LP-79] (Ac-WEQKIEELLKKAEEQQKKNEEELKKLEK(Arachidoyl)-NH2), the IC50 (HIV-1JRCSF) was 5.7 ± 0.86 pM, the IC50 [1] was 4.39 ± 0.67 pM and the “Helix content (%)” value [2] was 48%. For the same compound, the “Tm (°C)” value ([2]; ellipticity at 222 nm, 20-98°C, 2°C/min) was 56 °C, the IC50 (HIV-1HXB2 Env) was 0.0387 ± 0.00447 nM and the “Helix content (%)” value [3] was 55%. For the same compound, the “[θ]222” value [3] was -18030.

In the case of `CCCCCCCCCCCC(=O)NCCCC[C@H](NC(=O)[C@H](CCC(=O)O)NC(=O)[C@H](CC(C)C)NC(=O)[C@H](CCCCN)NC(=O)[C@H](CCCCN)NC(=O)[C@H](CC(C)C)NC(=O)[C@H](CCC(=O)O)NC(=O)[C@H](CCC(=O)O)NC(=O)[C@H](CCC(=O)O)NC(=O)[C@H](CC(N)=O)NC(=O)[C@H](CCCCN)NC(=O)[C@H](CCCCN)NC(=O)[C@H](CCC(N)=O)NC(=O)[C@H](CCC(N)=O)NC(=O)[C@H](CCC(=O)O)NC(=O)[C@H](CCC(=O)O)NC(=O)[C@H](C)NC(=O)[C@H](CCCCN)NC(=O)[C@H](CCCCN)NC(=O)[C@H](CC(C)C)NC(=O)[C@H](CC(C)C)NC(=O)[C@H](CCC(=O)O)NC(=O)[C@H](CCC(=O)O)NC(=O)[C@@H](NC(=O)[C@H](CCCCN)NC(=O)[C@H](CCC(N)=O)NC(=O)[C@H](CCC(=O)O)NC(=O)[C@H](Cc1c[nH]c2ccccc12)NC(C)=O)[C@@H](C)CC)C(N)=O` [LP-81] (Ac-WEQKIEELLKKAEEQQKKNEEELKKLEK(Lauroyl)-NH2), the IC50 (HIV-1JRCSF) is reported as 183 ± 45.4 pM, the IC50 [1] is reported as 111 ± 68.1 pM and the “Helix content (%)” value [2] is reported as 37%. The IC50 (HIV-1HXB2 Env) was 0.353 ± 0.0763 nM, the “Helix content (%)” value [3] was 49% and the “[θ]222” value [3] was -16313.

In the case of `CCCCCCCC(=O)NCCCC[C@H](NC(=O)[C@H](CCC(=O)O)NC(=O)[C@H](CC(C)C)NC(=O)[C@H](CCCCN)NC(=O)[C@H](CCCCN)NC(=O)[C@H](CC(C)C)NC(=O)[C@H](CCC(=O)O)NC(=O)[C@H](CCC(=O)O)NC(=O)[C@H](CCC(=O)O)NC(=O)[C@H](CC(N)=O)NC(=O)[C@H](CCCCN)NC(=O)[C@H](CCCCN)NC(=O)[C@H](CCC(N)=O)NC(=O)[C@H](CCC(N)=O)NC(=O)[C@H](CCC(=O)O)NC(=O)[C@H](CCC(=O)O)NC(=O)[C@H](C)NC(=O)[C@H](CCCCN)NC(=O)[C@H](CCCCN)NC(=O)[C@H](CC(C)C)NC(=O)[C@H](CC(C)C)NC(=O)[C@H](CCC(=O)O)NC(=O)[C@H](CCC(=O)O)NC(=O)[C@@H](NC(=O)[C@H](CCCCN)NC(=O)[C@H](CCC(N)=O)NC(=O)[C@H](CCC(=O)O)NC(=O)[C@H](Cc1c[nH]c2ccccc12)NC(C)=O)[C@@H](C)CC)C(N)=O` [LP-82] (Ac-WEQKIEELLKKAEEQQKKNEEELKKLEK(Octanoyl)-NH2), the IC50 (HIV-1JRCSF) is reported as 3710 ± 1080 pM, the IC50 [1] is reported as 1010 ± 344 pM and the “Helix content (%)” value [2] is reported as 22%. For the same compound, the IC50 (HIV-1HXB2 Env) was 3.21 ± 1.43 nM, the “Helix content (%)” value [3] was 39% and the “[θ]222” value [3] was -12910.

With `CCCCCCCCCCCCCCCCCC(=O)NCCCC[C@H](NC(=O)[C@H](CCC(=O)O)NC(=O)[C@H](CC(C)C)NC(=O)[C@H](CCCCN)NC(=O)[C@H](CCCCN)NC(=O)[C@H](CC(C)C)NC(=O)[C@H](CCC(=O)O)NC(=O)[C@H](CCC(=O)O)NC(=O)[C@H](CCC(=O)O)NC(=O)[C@H](CC(N)=O)NC(=O)[C@H](CCCCN)NC(=O)[C@H](CCCCN)NC(=O)[C@H](CCC(N)=O)NC(=O)[C@H](CCC(N)=O)NC(=O)[C@H](CCC(=O)O)NC(=O)[C@H](CCC(=O)O)NC(=O)[C@H](C)NC(=O)[C@H](CCCCN)NC(=O)[C@H](CCCCN)NC(=O)[C@H](CC(C)C)NC(=O)[C@H](CC(C)C)NC(=O)[C@H](CCC(=O)O)NC(=O)[C@H](CCC(=O)O)NC(=O)[C@@H](NC(=O)[C@H](CCCCN)NC(=O)[C@H](CCC(N)=O)NC(=O)[C@H](CCC(=O)O)NC(C)=O)[C@@H](C)CC)C(N)=O` [LP-88] (Ac-EQKIEELLKKAEEQQKKNEEELKKLEK(Stearoyl)-NH2) the IC50 (HIV-1JRCSF) was 4.29 ± 0.58 pM, the IC50 [1] was 4.26 ± 1.3 pM and the “Helix content (%)” value [2] was 34%. For the same compound, the IC50 (HIV-1HXB2 Env) was 0.0144 ± 0.00137 nM, the “Helix content (%)” value [3] was 55% and the “[θ]222” value [3] was -18242.

Work on “Ac-WEQKIEELLKKAEEQQKKNEEELKKLEK-NH2 [Lipopeptide P-52]” yielded an IC50 (HIV-1JRCSF) of 2170 ± 146 pM, an IC50 [1] of 2620 ± 235 pM and an IC50 (HIV-1HXB2 Env) of 1.34 ± 0.119 nM.
